Assay results published in publication PMC9737972, “Dual LSD1 and HDAC6 Inhibition Induces Doxorubicin Sensitivity in Acute Myeloid Leukemia Cells” (Cancers, 2022).
Read-outs that look alike come from different tables or passages of the source.

Tests used:
HDAC1 = biological target: T1, HDAC1 (Homo sapiens, UniProt Q13547); assay: Cellular thermal shift assay (CETSA), HDAC1; assay type: cell-based; conditions: THP-1 cells, 1 h; 4 μM (methods), Figure S14 legend 500 nM
T1 construct: endogenous in cells; host or cells: THP-1
T1 sequence (Q13547 whole entry): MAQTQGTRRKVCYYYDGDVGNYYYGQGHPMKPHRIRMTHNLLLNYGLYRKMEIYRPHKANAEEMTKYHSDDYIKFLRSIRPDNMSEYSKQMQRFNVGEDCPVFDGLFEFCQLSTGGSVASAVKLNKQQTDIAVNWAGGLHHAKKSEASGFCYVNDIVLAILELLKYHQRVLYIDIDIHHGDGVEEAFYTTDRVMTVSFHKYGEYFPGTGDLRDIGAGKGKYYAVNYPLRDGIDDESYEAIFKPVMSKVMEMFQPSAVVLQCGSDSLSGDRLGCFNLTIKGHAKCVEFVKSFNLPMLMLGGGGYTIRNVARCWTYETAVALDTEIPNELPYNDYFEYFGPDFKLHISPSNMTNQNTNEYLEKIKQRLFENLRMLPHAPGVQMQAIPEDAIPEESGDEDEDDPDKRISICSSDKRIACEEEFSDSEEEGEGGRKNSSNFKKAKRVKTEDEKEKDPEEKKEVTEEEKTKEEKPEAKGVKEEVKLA
Method: (§1) THP-1 cells, 1 × 10^7 cells at a density of 1 × 10^6 cells/mL, were treated with 4 μM of test compounds (1 h, 37 °C, 5% CO2). Cells were centrifuged, and the pellet was resuspended with 1 × Phosphate Buffer Saline (Gibco, Grand Island, NY, USA, #10010023) containing 1 × Protease Inhibitor Cocktail (Cell Signaling Technology, Beverly, MA, USA, #5871) and 1 mM phenylmethylsulfonyl fluoride (PMSF, Sigma Aldrich, St. Louis, MO, USA, #10837091001). The suspension volume was divided equally and heated for 3 min at 43–64 °C in a T100 Thermal Cycler (Bio-rad, Hercules, CA, USA). For protein extraction, cells were snap-frozen using liquid nitrogen, thawed twice (25 °C, 1 min), then centrifuged (20,000× g, 15 min, 4 °C). Following centrifugation, protein containing supernatants were denatured at 70 °C for 10 min and loaded on SDS-PAGE gels (Bio-Rad, Hercules, CA, USA, 161-0317). […] The signal was detected with BIORAD Chemi-Doc XRS+ System and by using Immobilon Forte Western HRP Substrate (WBLUF0500).

MOLM-13 [1] = assay: Cell Titer-Glo cell viability, MOLM-13; assay type: cell-based; conditions: Homo sapiens, read-out: IC50 cell viability MOLM-13
LSD1 [2] = biological target: T2, LSD1 (Homo sapiens, UniProt O60341); assay: Cellular thermal shift assay (CETSA), LSD1; assay type: cell-based; design: endogenous in cells; host or cells: THP-1; conditions: THP-1 cells, 1 h; 4 μM (methods, Figure 2), Figure S14 legend 500 nM
Method: (§2) THP-1 cells, 1 × 10^7 cells at a density of 1 × 10^6 cells/mL, were treated with 4 μM of test compounds (1 h, 37 °C, 5% CO2). Cells were centrifuged, and the pellet was resuspended with 1 × Phosphate Buffer Saline (Gibco, Grand Island, NY, USA, #10010023) containing 1 × Protease Inhibitor Cocktail (Cell Signaling Technology, Beverly, MA, USA, #5871) and 1 mM phenylmethylsulfonyl fluoride (PMSF, Sigma Aldrich, St. Louis, MO, USA, #10837091001). The suspension volume was divided equally and heated for 3 min at 43–64 °C in a T100 Thermal Cycler (Bio-rad, Hercules, CA, USA). For protein extraction, cells were snap-frozen using liquid nitrogen, thawed twice (25 °C, 1 min), then centrifuged (20,000× g, 15 min, 4 °C). Following centrifugation, protein containing supernatants were denatured at 70 °C for 10 min and loaded on SDS-PAGE gels (Bio-Rad, Hercules, CA, USA, 161-0317). After electrophoresis (100 V and 60 min), proteins were transferred onto PVDF membrane (Bio-Rad #1620177) at 200 mA for 180 min and immunoblotted with primary antibodies (1:10,000 dilution for anti-LSD1 Antibody ab129195 [EPR6825], 1:1000 dilution for Anti-HDAC6 Antibody CST 7558, 1:1000 dilution for Anti-HDAC1 Antibody ab53091, 1:1000 dilution for Anti-HDAC8 Antibody ab187139, 1:5000 dilution for Anti-beta Actin Antibody ab8227) overnight at 4 °C. The next day, membranes were incubated with HRP-conjugated secondary antibodies (1:5000 dilution for Abcam, Cambridge, UK, ab205718) for 1 h at room temperature. The signal was detected with BIORAD Chemi-Doc XRS+ System and by using Immobilon Forte Western HRP Substrate (WBLUF0500).

HDAC8 = biological target: T3, HDAC8 (Homo sapiens, UniProt Q9BY41); assay: Cellular thermal shift assay (CETSA), HDAC8; assay type: cell-based; conditions: THP-1 cells, 1 h; 4 μM (methods, Figure 2), Figure S14 legend 500 nM
T3 construct: endogenous in cells; host or cells: THP-1
T3 sequence (Q9BY41 1-377): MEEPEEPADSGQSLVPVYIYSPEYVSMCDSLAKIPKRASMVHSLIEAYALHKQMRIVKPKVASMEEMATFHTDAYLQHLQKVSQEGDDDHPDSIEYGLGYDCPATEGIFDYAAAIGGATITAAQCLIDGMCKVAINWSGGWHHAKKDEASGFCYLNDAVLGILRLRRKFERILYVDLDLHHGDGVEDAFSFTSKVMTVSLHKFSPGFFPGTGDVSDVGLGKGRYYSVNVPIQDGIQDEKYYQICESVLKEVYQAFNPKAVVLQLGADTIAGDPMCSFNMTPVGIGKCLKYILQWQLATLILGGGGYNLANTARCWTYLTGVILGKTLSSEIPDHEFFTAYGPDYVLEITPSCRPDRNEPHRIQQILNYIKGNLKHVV
Method: as §1

HDAC-3/NcoR2 = biological target: T4, HDAC-3/NcoR2 (Homo sapiens, UniProt O15379); assay: HDAC-Glo I/II enzyme assay, HDAC3; assay type: biochemical; conditions: ± standard error, three independent measurements
T4 construct: purchased BPS Bioscience 50003
T4 sequence (O15379 whole entry): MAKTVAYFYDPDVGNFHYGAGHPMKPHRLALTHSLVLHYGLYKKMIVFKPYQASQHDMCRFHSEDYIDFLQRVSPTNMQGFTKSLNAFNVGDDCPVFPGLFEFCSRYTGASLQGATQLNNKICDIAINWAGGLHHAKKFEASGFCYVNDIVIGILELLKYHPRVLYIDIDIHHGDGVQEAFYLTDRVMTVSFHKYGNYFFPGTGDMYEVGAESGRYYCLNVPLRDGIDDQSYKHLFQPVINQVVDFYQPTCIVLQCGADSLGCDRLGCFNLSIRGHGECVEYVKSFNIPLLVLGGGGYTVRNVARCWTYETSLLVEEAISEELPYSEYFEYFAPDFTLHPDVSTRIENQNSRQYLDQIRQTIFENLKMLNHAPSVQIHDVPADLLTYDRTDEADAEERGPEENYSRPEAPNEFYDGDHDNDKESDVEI
T4 sequence (Q9Y618 395-489 partner limits assumed): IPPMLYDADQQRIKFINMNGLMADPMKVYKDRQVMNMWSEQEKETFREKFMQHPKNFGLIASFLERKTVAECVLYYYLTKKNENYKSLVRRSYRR

THP-1 = assay: Cell Titer-Glo cell viability, THP-1; assay type: cell-based; conditions: Homo sapiens, read-out: IC50 cell viability THP-1
N-ter-GST-HDAC-6 = biological target: T5, N-ter-GST-HDAC-6 (Homo sapiens, UniProt Q9UBN7); assay: HDAC-Glo I/II enzyme assay, HDAC6; assay type: biochemical; conditions: ± standard error, three independent measurements
T5 construct: GST (N); purchased BPS Bioscience 50006
T5 sequence (Q9UBN7 1-1215): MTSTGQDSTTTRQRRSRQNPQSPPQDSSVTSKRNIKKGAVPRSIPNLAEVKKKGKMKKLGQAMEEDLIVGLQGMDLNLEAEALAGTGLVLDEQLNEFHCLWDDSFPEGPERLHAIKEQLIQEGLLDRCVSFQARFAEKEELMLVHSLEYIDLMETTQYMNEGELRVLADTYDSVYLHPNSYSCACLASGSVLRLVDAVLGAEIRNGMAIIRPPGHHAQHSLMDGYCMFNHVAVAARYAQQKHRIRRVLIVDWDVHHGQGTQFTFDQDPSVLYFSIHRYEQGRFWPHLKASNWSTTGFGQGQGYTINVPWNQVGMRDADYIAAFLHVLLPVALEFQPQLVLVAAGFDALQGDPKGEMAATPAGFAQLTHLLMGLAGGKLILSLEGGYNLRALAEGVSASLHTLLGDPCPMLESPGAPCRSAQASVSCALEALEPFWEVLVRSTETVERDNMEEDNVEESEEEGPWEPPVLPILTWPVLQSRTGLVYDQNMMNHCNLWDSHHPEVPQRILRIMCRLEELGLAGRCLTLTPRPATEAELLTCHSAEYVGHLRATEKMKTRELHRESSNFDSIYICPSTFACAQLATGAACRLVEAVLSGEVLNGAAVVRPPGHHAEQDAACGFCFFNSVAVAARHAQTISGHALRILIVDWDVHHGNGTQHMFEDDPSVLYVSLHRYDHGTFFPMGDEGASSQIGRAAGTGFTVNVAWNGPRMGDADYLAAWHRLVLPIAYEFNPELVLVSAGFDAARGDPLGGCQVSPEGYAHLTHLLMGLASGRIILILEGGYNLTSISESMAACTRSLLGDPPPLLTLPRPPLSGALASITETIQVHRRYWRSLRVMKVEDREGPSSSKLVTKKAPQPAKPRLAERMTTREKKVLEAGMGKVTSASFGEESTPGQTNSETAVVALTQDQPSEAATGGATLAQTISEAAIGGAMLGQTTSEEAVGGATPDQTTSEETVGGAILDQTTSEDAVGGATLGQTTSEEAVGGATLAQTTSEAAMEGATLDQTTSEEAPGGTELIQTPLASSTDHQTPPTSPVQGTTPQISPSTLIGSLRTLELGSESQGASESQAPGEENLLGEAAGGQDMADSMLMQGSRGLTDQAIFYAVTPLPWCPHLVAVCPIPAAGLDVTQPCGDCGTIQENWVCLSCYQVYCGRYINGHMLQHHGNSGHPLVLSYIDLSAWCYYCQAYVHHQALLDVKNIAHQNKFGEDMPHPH

Jurkat = assay: Cell Titer-Glo cell viability, Jurkat; assay type: cell-based; conditions: Homo sapiens, 120 h, read-out: IC50 cell viability Jurkat
C-terminal His-tag-HDAC8 = biological target: T6, C-terminal His-tag-HDAC8 (Homo sapiens, UniProt Q9BY41); assay: HDAC-Glo I/II enzyme assay, HDAC8; assay type: biochemical; conditions: ± standard error, three independent measurements
T6 construct: His (C); purchased BPS Bioscience 50008
T6 sequence (Q9BY41 1-377): T3 sequence (Q9BY41 1-377)

HDAC6 [3] = biological target: T7, HDAC6 (Homo sapiens, UniProt Q9UBN7); assay: Cellular thermal shift assay (CETSA), HDAC6; assay type: cell-based; conditions: THP-1 cells, 1 h; 4 μM (methods, Figure 2), Figure S14 legend 500 nM
T7 construct: endogenous in cells; host or cells: THP-1
T7 sequence (Q9UBN7 1-1215): T5 sequence (Q9UBN7 1-1215)
Method: as §2

K-562 = assay: Cell Titer-Glo cell viability, K-562; assay type: cell-based; conditions: Homo sapiens, read-out: IC50 cell viability K-562
[4] = biological target: T8, Human recombinant C-ter-His-FLAG-HDAC1 (Homo sapiens, UniProt Q13547); assay: HDAC-Glo I/II enzyme assay, HDAC1; assay type: biochemical; conditions: ± standard error, three independent measurements
T8 construct: His (C); FLAG (C); purchased BPS Bioscience 50051
T8 sequence (Q13547 whole entry): as the sequence (Q13547 whole entry) above

LSD1 [5] = biological target: T2, LSD1; assay: LSD1 MALDI-TOF enzyme assay; assay type: biochemical; design: made in house; conditions: ± standard error, three independent measurements
THP-1 cells = assay: Caspase 3/7 and 7-AAD staining (flow cytometry); conditions: doxorubicin alone at sublethal concentration (62.5 nM, 48 h)
MOLM-13 [6] = assay: Combination treatment with doxorubicin, MOLM-13 cell viability; assay type: cell-based; conditions: iDual 0.5 μM, iHDAC6 0.5 μM, GSK2879552 1.25 μM, ricolinostat […], 72 h then + doxorubicin 2 nM 48 h
HDAC6 [7] = biological target: T7, HDAC6; design: method as in PMID 22262760; conditions: cited from earlier work
[8] = system: LSD1 and HDAC substrates in THP-1 cells; assay: Western blot of methylation and acetylation levels of LSD1 and HDAC substrates; assay type: cell-based; conditions: for nuclear histone H3 acetylation (H3K18ac and H3K27ac levels), change vs DMSO: 24 h (ricolinostat 0.75 μM or 4 μM)
MAOs = conditions: cited from earlier work
[9] = cited from earlier work
LSD2 = conditions: cited from earlier work
[10] = MOLM-13, 120 h, ± standard deviation, three biological repeats
[11] = THP-1, 120 h, ± standard deviation, three biological repeats
[12] = ± standard deviation, three biological repeats
[13] = K562, 120 h, ± standard deviation, three biological repeats

Compound | thermal stabilization of HDAC1 (CETSA) (HDAC1) | IC50 (MOLM-13 [1]; [10]) [µM] | thermal stabilization of LSD1 (CETSA) (LSD1 [2]) | IC50 (HDAC-3/NcoR2) [µM] | IC50 (THP-1; [11]) [µM] | IC50 (N-ter-GST-HDAC-6) [µM] | IC50 (Jurkat; [12]) [µM] | IC50 (C-terminal His-tag-HDAC8) [µM] | thermal stabilization of HDAC6 (CETSA) (HDAC6 [3]) | IC50 (K-562; [13]) [µM] | IC50 [4] [µM] | IC50 (LSD1 [5]) [µM] | cell viability after priming with compound and co-treatment with doxorubicin 2 nM (MOLM-13 [6]) | nuclear histone H3 acetylation (H3K18ac and H3K27ac levels), change vs DMSO ([8]; 4 μM) | other results
O=C(O)c1ccc(CN2CCC(CNC3(c4ccccc4)CC3)CC2)cc1 [iNC] | did not exhibit target engagement | > 20 | did not exhibit target engagement | > 100 | > 20 | > 100 | > 20 | > 100 | did not exhibit target engagement | > 20 | > 100 | > 100 | – | – | thermal stabilization of HDAC8 (CETSA) (HDAC8): did not exhibit target engagement
COc1cccc2c1C(=O)c1c(O)c3c(c(O)c1C2=O)C[C@@](O)(C(=O)CO)C[C@@H]3O[C@H]1C[C@H](N)[C@H](O)[C@H](C)O1 [doxorubicin] | – | – | – | – | – | – | – | – | – | – | – | – | – | – | cells in the apoptosis/dead quadrant (caspase 3/7 staining), drug alone (THP-1 cells): 30%
O=C(CCCCCCNC(=O)c1cnc(N(c2ccccc2)c2ccccc2)nc1)NO [ricolinostat, reference compound] | stabilized | – | – | – | – | – | – | – | stabilizing HDAC6 | – | – | – | next in terms of activity | greater effect | IC50 (MOLM-13 [1]; MOLM-13, 120 h): 0.2 ± 0.03 µM; IC50 (THP-1; THP-1, 120 h): 2.9 ± 0.1 µM; IC50 (Jurkat): 1.9 ± 0.003 µM; HDAC6/HDAC1 isoform selectivity reported (HDAC6 [7]): approximately 10 fold; IC50 (K-562; K562, 120 h): 2.6 ± 0.3 µM; acetylation levels of α-tubulin, fold increase vs DMSO ([8]; 4 μM, 24 h): 25 fold; acetylation levels of α-tubulin, fold increase vs DMSO ([8]; ~0.75 μM (similar fraction of IC50), 24 h): 20 fold
O=C(O)c1ccc(CN2CCC(CN[C@@H]3C[C@H]3c3ccccc3)CC2)cc1 [GSK2879552, reference compound] | – | 15 ± 3.5 | stabilizing LSD1 only | > 100 | > 20 | > 100 | > 20 | > 100 | – | > 20 | > 100 | 1.54 ± 0.41 | relatively ineffective | did not significantly alter | inhibition of MAOs (MAOs): undetectable levels of inhibition; in vivo oral bioavailability [9]: favorable; inhibition of LSD2 (LSD2): undetectable levels of inhibition; levels of the histone substrate H3K4me2 ([8]; 4 μM, 24 h): increase
